Source: US20250051327A1, “MALT-1 MODULATORS” (EXSCIENTIA AI LIMITED, priority 2020, published 2025)

Tests used:
[1] = molecular target: Recombinant human MALT-1 (amino acids 340-824) (Homo sapiens (Human), UniProt Q9UDY8); test: MALT-1 inhibition assay (fluorogenic substrate Ac-LRSR-Rh110-DP); type: biochemical; settings: recombinant human MALT-1, substrate Ac-LRSR-Rh110-DP
In short: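 Reactions were started with fluorogenic substrate Ac-LRSR-Rh110-DP (10 μM final) against 3 nM enzyme and kept dark at 25° C for 60 minutes. IC50 values came from 4-parameter logistic fits of percent inhibition calculated from relative fluorescence units.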

[2] = tested on: IL-2 secretion by human effector memory T cells (TEM); test: Effector memory T cells IL-2 release assay; type: cell-based; settings: T-cell; human CD4+ effector memory T cells, CD3/CD28 bead stimulation, 24 h; read-out: CD4TC IL2 IC50
In short: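 Human CD4+ effector memory T cells from healthy-donor buffy coats were stimulated with anti-CD3/CD28 Dynabeads and exposed to 10 semi-log compound doses (0.1% DMSO) for 24 h at 37 °C. Supernatant IL-2 was measured by HTRF, and IC50 came from a 4-parameter logistic fit to maximal IL-2. Viability was checked by flow cytometry.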

Chain of Recombinant human MALT-1 (amino acids 340-824) (Q9UDY8 340-824): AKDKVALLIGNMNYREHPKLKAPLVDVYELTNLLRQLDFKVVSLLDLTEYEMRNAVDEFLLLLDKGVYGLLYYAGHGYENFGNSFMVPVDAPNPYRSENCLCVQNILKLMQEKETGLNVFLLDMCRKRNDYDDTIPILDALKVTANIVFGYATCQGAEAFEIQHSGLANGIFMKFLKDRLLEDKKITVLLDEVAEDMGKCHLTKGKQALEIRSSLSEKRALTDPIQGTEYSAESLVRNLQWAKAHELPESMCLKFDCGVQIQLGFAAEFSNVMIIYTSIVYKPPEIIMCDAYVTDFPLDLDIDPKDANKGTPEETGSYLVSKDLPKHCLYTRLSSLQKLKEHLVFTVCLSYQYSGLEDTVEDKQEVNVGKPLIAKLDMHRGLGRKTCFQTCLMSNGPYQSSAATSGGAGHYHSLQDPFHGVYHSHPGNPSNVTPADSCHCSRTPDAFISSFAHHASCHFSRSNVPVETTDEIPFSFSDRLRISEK

Compound | IC50 [1] [nM] | IC50 [2] [nM]
CC(=O)N1CC[C@@H](C(=O)N(C)[C@@H](c2ccc(N3CCCc4c3cnc3cc(Cl)nn43)cc2)C(F)(F)F)C1 (relative stereo) [CPD0073188, (3rel-R)-1-acetyl-N-[(1S)-1-(4-{4-chloro-2,3,7,10-tetraazatricyclo[7.4.0.0^2,6]trideca-1(9),3,5,7-tetraen-10-yl}phenyl)-2,2,2-trifluoroethyl]-N-methylpyrrolidine-3-carboxamide] | 113 | 235
COC[C@]1(C)CCN(c2ccc([C@H](N(C)C(=O)[C@H]3CC[S@@+]([O-])CC3)C(F)(F)F)cc2)c2cnc3cc(Cl)nn3c21 (relative stereo) [CPD0073135, (1rel-s,4rel-s)-N-[(1S)-1-[4-[(13rel-R)-4-chloro-13-(methoxymethyl)-13-methyl-2,3,7,10-tetrazatricyclo[7.4.0.0^2,6]trideca-1(9),3,5,7-tetraen-10-yl]phenyl]-2,2,2-trifluoro-ethyl]-N-methyl-1-oxo-1λ^4-thiane-4-carboxamide] | 106 | 130
CN(C(=O)N1CCS(=O)(=O)CC1)[C@@H](c1ccc(N2CCCc3c2cnc2cc(Cl)nn32)cc1)C(F)(F)F [CPD0072804, N-[(1S)-1-(4-{4-chloro-2,3,7,10-tetraazatricyclo[7.4.0.0^2,6]trideca-1(9),3,5,7-tetraen-10-yl}phenyl)-2,2,2-trifluoroethyl]-N-methyl-1,1-dioxo-1λ^e-thiomorpholine-4-carboxamide] | 159 | 307
CN1C[C@@H](C(=O)N(C)[C@@H](c2ccc(N3CCCc4c3cnc3cc(Cl)nn43)cc2)C(F)(F)F)CC1=O (relative stereo) [CPD0073557, (3rel-S)-N-[(1S)-1-(4-{4-chloro-2,3,7,10-tetraazatricyclo[7.4.0.0^2,6]trideca-1(9),3,5,7-tetraen-10-yl}phenyl)-2,2,2-trifluoroethyl]-N,1-dimethyl-5-oxopyrrolidine-3-carboxamide] | 121 | 282
CC(=O)N(C)[C@@H](c1ccc(N2CCCc3c2cnc2cc(Cl)nn32)cc1)C(F)(F)F [CPD0019349, N-[(1S)-1-(4-{4-chloro-2,3,7,10-tetraazatricyclo[7.4.0.0^2,6]trideca-1(9),3,5,7-tetraen-10-yl}phenyl)-2,2,2-trifluoroethyl]-N-methylacetamide] | 230 | 83
CN(C(=O)CC1CCCS1(=O)=O)[C@@H](c1ccc(N2CCCc3c2cnc2cc(Cl)nn32)cc1)C(F)(F)F (stereo partly drawn) [CPD0021934, N-[(1S)-1-(4-{4-chloro-2,3,7,10-tetraazatricyclo[7.4.0.0^2,6]trideca-1(9),3,5,7-tetraen-10-yl}phenyl)-2,2,2-trifluoroethyl]-2-(1,1-dioxo-1λ^6-thiolan-2-yl)-N-methylacetamide] | 369 | 588
COC(C)c1c(Nc2ccc([C@H](N(C)C(=O)C3CCS(=O)(=O)CC3)C(F)(F)F)cc2)cnc2ccc(Cl)nc12 (stereo partly drawn) [CPD0019496, N-[(1S)-1-(4-{[6-chloro-4-(1-methoxyethyl)-1,5-naphthyridin-3-yl]amino}phenyl)-2,2,2-trifluoroethyl]-N-methyl-1,1-dioxo-1λ^6-thiane-4-carboxamide] | 112 | 22
CN1CCN(CC(=O)N(C)[C@@H](c2ccc(N3CCCc4c3cnc3cc(Cl)nn43)cc2)C(F)(F)F)CC1 [CPD0021746, N-[(1S)-1-(4-{4-chloro-2,3,7,10-tetraazatricyclo[7.4.0.0^2,6]trideca-1(9),3,5,7-tetraen-10-yl}phenyl)-2,2,2-trifluoroethyl]-N-methyl-2-(4-methylpiperazin-1-yl)acetamide] | 522 | 466
COC(C)c1c(Nc2ccc([C@H](N(C)C(=O)C3CCS(=O)(=O)CC3)C(F)(F)F)cn2)cnc2ccc(Cl)nc12 (stereo partly drawn) [CPD0019499, N-[(1S)-1-(6-{[6-chloro-4-(1-methoxyethyl)-1,5-naphthyridin-3-yl]amino}pyridin-3-yl)-2,2,2-trifluoroethyl]-N-methyl-1,1-dioxo-1λ^6-thiane-4-carboxamide] | 80 | 190

Now from value to molecule:

IC50 [1] [nM] | IC50 [2] [nM] | Compound
63 | 120 | CN(C(=O)[C@@H]1CC(=O)N1)[C@@H](c1ccc(N2CCCc3c2cnc2cc(Cl)nn32)cc1)C(F)(F)F [CPD0075870, (2S)-N-[(1S)-1-[4-(4-chloro-2,3,7,10-tetrazatricyclo[7.4.0.0^2,6]trideca-1(9),3,5,7-tetraen-10-yl)phenyl]-2,2,2-trifluoro-ethyl]-N-methyl-4-oxo-azetidine-2-carboxamide]
61 | 24 | COc1ccc2ncc(Nc3ccc([C@H](N(C)C(=O)[C@H]4CC[S@](=N)(=O)CC4)C(F)(F)F)cc3)c([C@H](C)OC)c2n1 (stereo in doubt) [CPD0073130, (1 rel-r,4rel-r)-1-imino-N-methyl-1-oxo-N-[(1S)-2,2,2-trifluoro-1-[4-({6-methoxy-4-[(1 rel-S)-1-methoxyethyl]-1,5-naphthyridin-3-yl}amino)phenyl]ethyl]-1λ^6-thiane-4-carboxamide]
47 | 71 | COC(C)c1c(Nc2ccc([C@H](N(C)C(=O)C3CCS(=O)(=O)CC3)C(F)(F)F)cc2)cnn2cc(Cl)nc12 (stereo partly drawn) [CPD0072526, N-[(1S)-1-[4-[[2-chloro-8-(1-methoxyethyl)imidazo[1,2-b]pyridazin-7-yl]amino]phenyl]-2,2,2-trifluoro-ethyl]-N-methyl-1,1-dioxo-thiane-4-carboxamide]
103 | 207 | CN1C[C@H](C(=O)N(C)[C@@H](c2ccc(N3CCCc4c3cnc3cc(Cl)nn43)cc2)C(F)(F)F)CCC1=O (relative stereo) [CPD0073197, (3rel-R)-N-[(1S)-1-(4-{4-chloro-2,3,7,10-tetraazatricyclo[7.4.0.0^2,6]trideca-1(9),3,5,7-tetraen-10-yl}phenyl)-2,2,2-trifluoroethyl]-N,1-dimethyl-6-oxopiperidine-3-carboxamide]
80 | 103 | CN(C(=O)C1CCS(=O)(=O)CC1)[C@@H](c1ccc(N2CCC(C)(C)c3c2cnc2cc(Cl)nn32)nc1)C(F)(F)F [CPD0021562, N-[(1S)-1-(6-{4-chloro-13,13-dimethyl-2,3,7,10-tetraazatricyclo[7.4.0.0^2,6]trideca-1(9),3,5,7-tetraen-10-yl}pyridin-3-yl)-2,2,2-trifluoroethyl]-N-methyl-1,1-dioxo-1λ^6-thiane-4-carboxamide]
75 | 93 | CN(C(=O)C1CC2(C1)CS(=O)(=O)C2)[C@@H](c1ccc(N2CCCc3c2cnc2cc(Cl)nn32)cc1)C(F)(F)F [CPD0072937, N-[(1S)-1-(4-{4-chloro-2,3,7,10-tetraazatricyclo[7.4.0.0^2,6]trideca-1(9),3,5,7-tetraen-10-yl}phenyl)-2,2,2-trifluoroethyl]-N-methyl-2,2-dioxo-2λ^6-thiaspiro[3.3]heptane-6-carboxamide]
38 | 32 | CN(C(=O)C1CCS(=O)(=O)CC1)[C@@H](c1ccc(N2CCC(C)(C)c3c2cnc2cc(Cl)nn32)cc1)C(F)(F)F [CPD0019589, N-[(1S)-1-(4-{4-chloro-13,13-dimethyl-2,3,7,10-tetraazatricyclo[7.4.0.0^2,6]trideca-1(9),3,5,7-tetraen-10-yl}phenyl)-2,2,2-trifluoroethyl]-N-methyl-1,1-dioxo-1λ^6-thiane-4-carboxamide]
66 | 116 | CN(C(=O)[C@@H]1CCN(S(C)(=O)=O)C1)[C@@H](c1ccc(N2CCCc3c2cnc2cc(Cl)nn32)cc1)C(F)(F)F (relative stereo) [CPD0073144, (3rel-R)-N-[(1S)-1-(4-{4-chloro-2,3,7,10-tetraazatricyclo[7.4.0.0^2,6]trideca-1(9),3,5,7-tetraen-10-yl}phenyl)-2,2,2-trifluoroethyl]-1-methanesulfonyl-N-methylpyrrolidine-3-carboxamide]
76 | 111 | CN(C(=O)C1CCS(=O)(=O)CC1)[C@@H](c1ccc(N2CCCc3c2cnc2cc(Cl)nn32)c(F)c1)C(F)(F)F [CPD0021750, N-[(1S)-1-(4-{4-chloro-2,3,7,10-tetraazatricyclo[7.4.0.0^2,6]trideca-1(9),3,5,7-tetraen-10-yl}-3-fluorophenyl)-2,2,2-trifluoroethyl]-N-methyl-1,1-dioxo-1λ^6-thiane-4-carboxamide]
78 | 317 | CN(C(=O)C1CCS(=N)(=O)CC1)[C@@H](c1ccc(N2CC3(CC3)Cc3c2cnc2cc(Cl)nn32)cc1)C(F)(F)F (stereo partly drawn) [CPD0073761, N-[(1S)-1-[4-(4-chlorospiro[2,3,7,10-tetrazatricyclo[7.4.0.0^2,6]trideca-1(9),3,5,7-tetraene-12,1′-cyclopropane]-10-yl)phenyl]-2,2,2-trifluoro-ethyl]-1-imino-N-methyl-1-oxo-thiane-4-carboxamide]
38 | 141 | CN=[S@]1(=O)CC[C@H](C(=O)N(C)[C@@H](c2ccc(N3CCCc4c3cnc3cc(Cl)nn43)cc2)C(F)(F)F)CC1 (relative stereo) [CPD0072531, (1rel-R,4rel-R)—N-[(1S)-1-(4-{4-chloro-2,3,7,10-tetraazatricyclo[7.4.0.0^2,6]trideca-1(9),3,5,7-tetraen-10-yl}phenyl)-2,2,2-trifluoroethyl]-N-methyl-1-(methylimino)-1-oxo-1λ^e-thiane-4-carboxamide]
63 | 900 | COc1ccccc1CC(=O)N(C)[C@@H](c1ccc(N2CCCc3c2cnc2cc(Cl)nn32)cc1)C(F)(F)F [CPD0021561, N-[(1S)-1-(4-{4-chloro-2,3,7,10-tetraazatricyclo[7.4.0.0^2,6]trideca-1(9),3,5,7-tetraen-10-yl}phenyl)-2,2,2-trifluoroethyl]-2-(2-methoxyphenyl)-N-methylacetamide]
